Reference: patent publication US11547101B2, “Non-human animals having a disruption in a C9ORF72 locus” (Regeneron Pharmaceuticals, Inc., priority 2015, dated 2023)

Tests used:
[1] = tested on: cultured wild type motor neurons; experiment: Survival of cultured embryonic stem cell-derived wild type motor neurons treated with BMAA (cell counts, trypan blue); type: cell-based, mouse; settings: wild type motor neurons in ESMN with BMAA at 0.1-100 μM; FIG. 4
Method: Briefly, mouse embryonic stem cells are cultured and differentiated into motor neurons, during an eight-day period. The first day, previously frozen mouse embryonic stem cells are thawed and added to a 15 mL falcon tube with five mL of embryonic stem cell medium (ES medium: DMEM with 15% FBS, 1% pen/strep., 1% glutamine, 1% non-essential amino acids, 1% nucleosides, 0.1% β-mercaptoethanol, 1% sodium-pyruvate, and LIF at 10000 unit/mL), The tube is then centrifuged for five minutes at 800 rpm. The supernatant is aspirated and the cells suspended in 10 mL of ES medium. The cells are then plated on a T75 flask that is coated with 10 mL of 0.1% gelatin and incubated for 30 minutes at 37° C. to facilitate attachment to the flask bottom. The cells are then incubated overnight. The following day the medium exchanged with fresh medium for survival.
The following day medium is aspirated from the flask. The flask is washed with 10 mL of PBS, and then 5 mL of trypsin is added to detach the cells from the bottom of the flask. The cells are incubated for five minutes at 37° C. Detachment is confirmed by checking the flask under a microscope. […]
After three days embryoid bodies (EB) that form are dissociated. […] The cells are then counted using a Countess automatic cell counter (Life Technologies) and 0.5 to 1 million cells are plated with 2 mL ESMN medium per well in each six well plate. […]

C9orf72−/− mice = experiment: ALS-like phenotype in aged C9orf72−/− mice given weekly i.p. BMAA (body weight, motor scores, rotarod, open field, catwalk); type: in vivo, mouse; settings: 32-week old C9orf72−/− mice, BMAA 500 mg/kg weekly i.p. for six weeks; FIGS. 6A-6E
Method: In another experiment, aged (i.e., 32-week old) wild type and C9orf72^−/− mice were administered weekly i.p. injections of BMAA (500 mg/kg) or PBS (control) for six weeks. Body weight measurements were recorded each week up to 38 weeks starting at day zero (i.e., 32 weeks). Analysis of motor impairment via rotarod, open field locomotor, and catwalk testing (as described above) were also recorded at the start of the experiment (week 0, […]) and every other week up to 38 weeks. Table 6 sets forth the scoring methodology related to motor impairment, tremor and rigidity of animals during testing.

C9orf72−/− motor neurons = experiment: Oxidative stress (ROS, CellROX Green) of cultured C9orf72−/− motor neurons exposed to BMAA; type: cell-based, mouse; settings: 100 mM BMAA, measured at days 1 and 7, FIG. 7
Method: In another experiment, motor neurons from C9orfF72^−/− mice were cultured as described above (see also FIG. 7) and treated with antisense oligonucleotides that selectively target sense strand repeat-containing RNAs and reduce sense-oriented RNA foci without affecting overall C9orf72 expression. Treatment was followed by addition of 100 mM BMAA. Survival and oxidative stress of cultured motor neurons were measured at days 1 and 7. Briefly, oxidative stress of plated embryonic stem cell-derived motor neurons (described above) was assessed by measuring the Reactive Oxygen Species (ROS) levels in the cells using Life Technologies' CellROX Oxidative Stress Green reagent at a final concentration of 5 μM and incubating for 30 minutes at 37° C. After incubation, cells were washed three times with PBS and fluorescence was measured using a standard microplate fluorometry.

wild type mice = experiment: ALS-like phenotype in wild type mice given weekly i.p. BMAA (body weight, rotarod, open field, catwalk); type: in vivo, mouse; settings: BMAA 500 mg/kg weekly i.p. for six weeks, FIGS. 5A-5D
Method: In another experiment, wild type mice were administered weekly i.p. injections of BMAA (500 mg/kg) or PBS (control) for six weeks starting at week 1 (FIG. 5A, top). Body weight measurements were recorded each week up to 6 weeks, week 14 and week 18. Analysis of motor impairment via rotarod, open field locomotor, and catwalk testing (as described above) were recorded at the start of the experiment (week 0, 10-weeks old), every other week up to 6 weeks, week 14 and week 18.

CNC[C@H](N)C(=O)O [BMAA, β-Methylamino-L-alanine]
survival of cultured motor neurons (percentage of live neurons to control) [1]: kills cultured wild type motor neurons in a dose-dependent manner | effect on ALS-like motor phenotype (C9orf72−/− mice): mildly exacerbates | effect on increased inactivity and gait abnormalities (C9orf72−/− mice): does not affect | oxidative stress (Reactive Oxygen Species levels) (C9orf72−/− motor neurons): increased oxidative stress | induction of ALS-like phenotype (wild type mice): did not induce an ALS-like phenotype
